Results: the NIST ThermoML archive (doi:10.1016/j.fluid.2005.11.014)
Where “and” joins values, the source holds several entries; their conditions need not be identical. Equal entries are not always repeated. Numbers after ± are expanded uncertainties.

Settings: 313.15 K; Liquid; Closed cell (Static) method

Structure (SMILES) | vapor or sublimation pressure
c1ccccc1 [benzene] | 24.39 ± 0.097 kPa and 24.37 ± 0.097 kPa
CC(C)OC(C)C [diisopropyl ether] | 37.1 ± 0.15 kPa and 37.11 ± 0.15 kPa and 37.12 ± 0.15 kPa
CCCO [propan-1-ol] | 7.003 ± 0.038 kPa and 7 ± 0.038 kPa
